These are literature values, as cited in US11236258B2, “Aqueous based dust control compositions and methods” (Trican Well Service Ltd, priority 2018, dated 2022).

The structures appear in SMILES notation.

The conditions of data set [1]: within 14 days.

In the case of `C[N+](C)(C)CCOP(=O)(O)OCC(O)CO` (stereo not shown) [GPC, glycerophosphocholine], the solubility in water is 4.04 g/L.
Regarding `C[N+](C)(C)CCO` [CHO, choline], the solubility in water is 3.61 g/L.
Consider `C[N+](C)(C)CCO.[Cl-]` [Choline chloride, choline chloride], for which the “measured solubility in water” value is 650 g/L. Further, the “biodegradation, degradation” value in data set [1] was 93%.
